The values below are quoted from earlier work in PMC5997364, “OG716: Designing a fit-for-purpose lantibiotic for the treatment of Clostridium difficile infections” (PLoS ONE, 2018).

≈ marks a conversion by molar mass, not a printed value.

On the set-up of this series: method as in earlier work. The following applies: cited from earlier work.

For `CCc1c(Cl)c(O)c(Cl)c(O)c1C(=O)O[C@H]1[C@H](O)[C@H](OC)[C@H](OC/C2=C\C=C\C[C@H](O)/C(C)=C/[C@H](CC)[C@@H](O[C@@H]3OC(C)(C)[C@@H](OC(=O)C(C)C)[C@H](O)[C@@H]3O)/C(C)=C/C(C)=C/C[C@@H]([C@@H](C)O)OC2=O)O[C@@H]1C` [fidaxomycin], the solubility in water was 12.5 µg/mL (≈ 11.8 µM).
